Results from US4017596A, “Radiopharmaceutical chelates and method of external imaging” (priority 1975, dated 1977).

Tests used:
[1] = Imaging in dog before and after plasma loading with bromosulphthalein (BSP), compared with I-131 Rose Bengal
[2] = Scintillation camera imaging and blood level in dogs after intravenous injection; settings: dog
Procedure: One animal was selected for imaging at various time intervals utilizing a scintillation camera. […] Sufficiet cholecystokinin was injected into the dog intravenously to effect contraction of the gall bladder. […] The images were obtained using a gamma scintillation camera (Pho Gamma III) and a parallel hole high sensitivity collimator.

[3] = Biodistribution in mice after intravenous injection (organ counting in scintillation counter); format: in vivo; settings: 25 g mice; i.v.; 60 minutes

With `Cc1cccc(C)c1NC(=O)CN(CC(=O)O)CC(=O)O` (99mTc complex, metal not drawn) [Example 2] the “effect of BSP loading on plasma clearance or imaging characteristics” value ([1]; dog, BSP levels of 4-7 mg percent to simulate hyperbilirubinemia) was “did not substantially alter the plasma clearance or imaging characteristics”, the “image quality compared to I-131 Rose Bengal” value ([1]; same dog, FIG. 5) was “much better quality” and the “time to leaving the gall bladder after cholecystokinin injection” value ([2]; after i.v. cholecystokinin, FIG. 4 Frame E) was no more than 1 min. For the same compound, the “time at which the liver is clearly identified” value ([2]; i.v. 4 mCi, FIG. 3 Frame A) was 5 min, the “uptake by the liver” value ([2]; i.v. 4 mCi, anterior imaging, FIG. 3) was “rapid uptake by the liver” and the “injected dose remaining in the blood” value ([2]; i.v. 4 mCi, at 10 minutes) was “Less than 10%”. For the same compound, the “clearance from the liver / accumulation in gall bladder” value ([2]; i.v. 4 mCi, images at 25, 40 and 50 minutes) was “clearance from the liver is demonstrated with progressive accumulation of the radiopharmaceutical in the gall bladder” and the “injected dose remaining in the blood (second value of "10% and 3% ... respectively")” value ([2]; i.v. 4 mCi, only "10 minutes" printed, second time missing) was less than 3%.

In the case of `Oc1cccc2cccnc12` [Example 8, technetium-99m chelate of 8-hyroxyquinoline], the “injected dose in the intestines” value [3] was 20% and the “injected dose in the liver” value [3] was 40%.

For `Oc1cccc2cccnc12` [Example 9, gallium-67 chelate of 8-hydroxyquinoline], the “injected dose in the blood” value [3] was 20%, the “injected dose in the intestines” value [3] was 13% and the “injected dose in the liver” value [3] was 25%.
